Structures can show the parent of a compound that is named as a salt.
Key:
[1] = tested on: Crl:CD (Sparague-Dawley) male rat; assay: Measurement of blood pressure, heart rate in rat under wakefulness; type: in vivo; settings: conscious rat, 100, 300 mg/kg forcedly orally administered, up to 180 minutes
Description: A Crl:CD (Sparague-Dawley) male rat (Charles River Laboratories Japan, Inc., 8 weeks old) was anesthetized by inhalation of isoflurane. A catheter (INTRAMEDIC POLYETHYLENE Tubing PE50, CLAY ADAMS) was inserted and indwelled in a femoral artery and another end was exposed from dorsal skin. The rat was placed in a rearing cage for blood pressure measurement. After elapse of 2 hours or more from the insertion of the catheter, each of the compound of Reference Example 2 and the compound of Example 6(72) (dose: 100, 300 mg/kg) was forcedly orally administered, and blood pressure was measured under no anesthesia and no restraint. The blood pressure was measured by connecting the catheter inserted in the femoral artery and a blood pressure transducer (DX-360, Nihon Kohden Corporation) and passing through an amplifier for blood pressure measurement (Coupler•Amplifier PP-101HAP-101H, Nihon Kohden Corporation). Blood pressure signals were captured into a data acquisition analysis system (HEM 3.5, NOTOCORD SYSTEM S.A.) through a polygraph system (PEG-1000, Nihon Kohden Corporation) to measure blood pressure (systolic pressure, diastolic pressure, mean blood pressure) and heart rate (measured from blood pressure pulse wave). […] The data were accumulated as measured values at respective time points and % variation values in which each value before administration was taken as 100.

[2] = target: human ENPP2 (Homo sapiens (Human), UniProt Q13822); assay: Measurement of human ENPP2 inhibitory activity; type: biochemical; settings: human ENPP2, 16:0-LPC substrate
Description: 10 μL of a test compound solution (10% dimethyl sulfoxide) at each concentration and 40 μL of a 5 μg/mL human ENPP2 solution (buffer A: 100 mmol/L Tris-HCl (pH 9.0), 500 mmol/L NaCl, 5 mmol/L MgCl2, 0.05% Triton X-100) were mixed, 50 μL of a 2 mmol/L 16:0-lysophosphatidylcholine (LPC) solution (buffer A) was further added to react at 37° C. for 24 hours. Subsequently, to 10 ill, of the reaction solution was added 90 III, of a measurement buffer (0.5 mmol/L aminoantipyrine, 0.3 mmol/L N-ethyl-N-(2-hydroxy-3-sulfopropyl)-3-methylaniline, 1 U/mL peroxidase, 3 U/mL choline oxidase, 100 mmol/L Tris-HCl (pH 8.5), 5 mmol/L CaCl2) to react at 37° C. for 20 minutes, and spectrophotometric determination was performed at 555 nm.
Using a standard curve, a choline production amount (enzyme activity) in each test compound was calculated, and the inhibitory activity rate of each test compound was calculated, wherein the enzyme activity in a positive control to which a test compound is not added, was a 0% inhibition rate, and the enzyme activity in a negative control to which a test compound and human ENPP2 are not added, were 100% inhibition. Further, concerning the present compounds shown in Table 3, an IC50 value was calculated from inhibitory activity rate at each concentration.

[3] = tested on: SD male rat; assay: Measurement of urethra internal pressure in rat under anesthesia; type: in vivo; settings: dose 1.0 mg/kg intravenously
Excerpt: A SD male rat (Crl: CD(SD), Charles River Laboratories Japan, Inc., 7-10 weeks old) which has fasted since the evening of the day before this experiment was anesthetized by subcutaneous administration of 1.5 g/kg urethane at a back of a neck. After an abdominal part was median incised, a catheter for duodenum was inserted within lumen of duodenum and then tied down by string. A lower abdominal part was median incised, and a urethra was ligated at around pubis. A urethral catheter for measuring a urethra internal pressure, equipped with a collar at a tip and filled with a physiological saline was inserted into a urethra through an incised bladder top, and ligation-fixed at a bladder neck part. The urethral catheter was connected to a pressure transducer (manufactured by Nihon Kohden Corporation), and a urethra internal pressure was measured. […] A urethra internal pressure reduction rate (%) was calculated based on a urethra internal pressure after compound administration, wherein a value obtained by subtracting a postmorten basline value (minimum value of urethra internal pressure for 10 minutes after administration of somnopentyl) from a urethra internal pressure value before compound administration (0 minute) was 100%.

Row | SMILES | IC50 [2] [nM] | influence on a circulatory organ (blood pressure, heart rate) [1] | urethra internal pressure reduction rate [3] [%]
1 | Cc1nc(C(F)(F)F)sc1Cn1c2c(c3cccnc31)CCN(C(=O)C[C@H]1CC[C@@](C)(C(=O)O)C1(C)C)C2 [Example 6(63), (1R,3R)-1,2,2-trimethyl-3-[2-(9-{[4-methyl-2-(trifluoromethyl)-1,3-thiazol-5-yl]methyl}-5,6,8,9-tetrahydro-7H-pyrido[4′,3′:4,5]pyrrolo[2,3-b]pyridin-7-yl)-2-oxoethyl]cyclopentanecarboxylic acid] | 8 |  | 
2 | O=C(O)C1CCN(CC(=O)N2CCc3c(n(Cc4ccc(OC(F)(F)F)cc4)c4ncccc34)C2)CC1 [Example 7(3), 1-(2-oxo-2-{9-[4-(trifluoromethoxy)benzyl]-5,6,8,9-tetrahydro-7H-pyrido[4′,3′:4,5]pyrrolo[2,3-b]pyridin-7-yl}ethyl)-4-piperidinecarboxylic acid hydrochloride] | 28 |  | 
3 | O=C(CC12CCC(C(=O)O)(CC1)C2)N1CCc2c(n(Cc3cnc(C(F)(F)F)s3)c3ncccc23)C1 [Example 6(65), 4-[2-oxo-2-(9-{[2-(trifluoromethyl)-1,3-thiazol-5-yl]methyl}-5,6,8,9-tetrahydro-7H-pyrido[4′,3′:4,5]pyrrolo[2,3-b]pyridin-7-yl)ethyl]bicyclo[2.2.1]heptane-1-carboxylic acid] | 5.1 |  | 
4 | CCc1cccc(Cn2c3c(c4cccnc42)CCN(C(=O)CC24CCC(C(=O)O)(CC2)C4)C3)c1 [Example 6(72), 4-{2-[9-(3-ethylbenzyl)-5,6,8,9-tetrahydro-7H-pyrido[4′,3′:4,5]pyrrolo[2,3-b]pyridin-7-yl]-2-oxoethyl}bicyclo[2.2.1]heptane-1-carboxylic acid] |  | no influence of the compound of Example 6(72) that is a compound of the present invention was observed on a circulatory organ | 25
5 | CC(C)(CCCC(=O)N1CCc2c(n(Cc3cnc(C(F)(F)F)s3)c3ncccc23)C1)C(=O)O [Example 3(50), 2,2-dimethyl-6-oxo-6-(9-{[2-(trifluoromethyl)-1,3-thiazol-5-yl]methyl}-5,6,8,9-tetrahydro-7H-pyrido[4′,3′:4,5]pyrrolo[2,3-b]pyridin-7-yl)hexanoic acid] | 4.5 |  | 
6 | CC1(C)[C@@H](CC(=O)N2CCc3c(n(Cc4ccc(C(F)(F)F)cc4)c4ncccc34)C2)CC[C@@]1(C)C(=O)O [Example 6(53), (1R,3R)-1,2,2-trimethyl-3-(2-oxo-2-{9-[4-(trifluoromethyl)benzyl]-5,6,8,9-tetrahydro-7H-pyrido[4′,3′:4,5]pyrrolo[2,3-b]pyridin-7-yl}ethyl)cyclopentanecarboxylic acid] | 10 |  | 

The next lines start with results.

Row | IC50 [2] [nM] | SMILES | influence on a circulatory organ (blood pressure, heart rate) [1] | urethra internal pressure reduction rate [3] [%]
7 | 14 | O=C(C[C@H]1CC[C@H](C(=O)O)CC1)N1CCc2c(n(Cc3ccc(F)cc3F)c3ncccc23)C1 [Reference Example 2, trans-4-{2-[9-(2,4-difluorobenzyl)-5,6,8,9-tetrahydro-7H-pyrido[4′,3′:4,5]pyrrolo[2,3-b]pyridin-7-yl}-2-oxoethyl]cyclohexanecarboxylic acid, reference compound] | An influence of the compound of Reference Example 2 on a circulatory organ was observed | 
8 | 4.9 | C[C@@H]1CN(CC(=O)N2CCc3c(n(Cc4ccc(C(F)(F)F)s4)c4ncccc34)C2)C[C@H](C)N1CC(=O)O [Example 7(41), rel-{(2R,6S)-2,6-dimethyl-4-[2-oxo-2-(9-{[5-(trifluoromethyl)-2-thienyl]methyl}-5,6,8,9-tetrahydro-7H-pyrido[4′,3′:4,5]pyrrolo[2,3-b]pyridin-7-yl)ethyl]-1-piperazinyl}acetic acid dihydrochloride] |  | 
9 | 8.4 | COc1cc(CC(=O)N2CCc3c(n(Cc4sc(C(F)(F)F)nc4C)c4ncccc34)C2)cc(OC)c1C(=O)O [Example 11(24), 2,6-dimethoxy-4-[2-(9-{[4-methyl-2-(trifluoromethyl)-1,3-thiazol-5-yl]methyl}-5,6,8,9-tetrahydro-7H-pyrido[4′,3′:4,5]pyrrolo[2,3-b]pyridin-7-yl)-2-oxoethyl]benzoic acid] |  | 
10 | 12 | O=C(CCCC1(C(=O)O)CC1)N1CCc2c(n(Cc3ccc(C(F)(F)F)s3)c3ncccc23)C1 [Example 9(1), 1-[4-oxo-4-(9-{[5-(trifluoromethyl)-2-thienyl]methyl}-5,6,8,9-tetrahydro-7H-pyrido[4′,3′:4,5]pyrrolo[2,3-b]pyridin-7-yl)butyl]cyclopropanecarboxylic acid] |  | 
11 | 5.4 | COc1cc(CC(=O)N2CCc3c(n(Cc4ccc(OC(F)(F)F)cc4)c4ncccc34)C2)ccc1C(=O)O [Example 11(12), 2-methoxy-4-(2-oxo-2-{9-[4-(trifluoromethoxy)benzyl]-5,6,8,9-tetrahydro-7H-pyrido[4′,3′:4,5]pyrrolo[2,3-b]pyridin-7-yl}ethyl)benzoic acid] |  | 
12 | 3.8 | C[C@]1(C(=O)O)CC[C@H](CC(=O)N2CCc3c(n(Cc4cnc(C(F)(F)F)s4)c4ncccc34)C2)CC1 [Example 10(5), trans-1-methyl-4-[2-oxo-2-(9-{[2-(trifluoromethyl)-1,3-thiazol-5-yl]methyl}-5,6,8,9-tetrahydro-7H-pyrido[4′,3′:4,5]pyrrolo[2,3-b]pyridin-7-yl)ethyl]cyclohexanecarboxylic acid] |  | 
13 | 16 | O=C(O)C1=CCN(CC(=O)N2CCc3c(n(Cc4ccc(C(F)(F)F)s4)c4ncccc34)C2)CC1 [Example 7(45), 1-[2-oxo-2-(9-{[5-(trifluoromethyl)-2-thienyl]methyl}-5,6,8,9-tetrahydro-7H-pyrido[4′,3′:4,5]pyrrolo[2,3-b]pyridin-7-yl)ethyl]-1,2,3,6-tetrahydro-4-pyridinecarboxylic acid] |  | 
14 | 17 | C[C@]1(C(=O)O)CC[C@H](CC(=O)N2CCc3c(n(Cc4ccc(C(F)(F)F)s4)c4ncccc34)C2)CC1 [Example 10(2), trans-1-methyl-4-[2-oxo-2-(9-{[5-(trifluoromethyl)-2-thienyl]methyl}-5,6,8,9-tetrahydro-7H-pyrido[4′,3′:4,5]pyrrolo[2,3-b]pyridin-7-yl)ethyl]cyclohexanecarboxylic acid] |  | 
